Measured values reported in patent US20160101148A1, “TREATMENT AND PREVENTION OF BACTERIAL SKIN INFECTIONS USING ORITAVANCIN” (priority 2013, published 2016).
Converted amounts (≈) assume the structure as drawn. Like-named read-outs stand apart in the source and are kept apart here.

What was measured:
[1] = tested on: S. aureus strains (14 mecC MRSA, 2 mecA MRSA, ATCC 29213 MSSA); experiment: Broth microdilution MIC determination; type: cell-based, Staphylococcus aureus; details: Staphylococcus aureus; for MIC: read-out: MIC; for MIC90: mecC strains, read-out: MIC90
Procedure: The S. aureus (SA) strains used in this study were: ATCC 43300 (mecA methicillin-resistant SA [MRSA]); ATCC 33591 (mecA MRSA), ATCC 29213 (methicillin-susceptible SA; quality control strain) and 14 mecC MRSA obtained from the Staten Serum Institute (Copenhagen, Denmark).
Tests with oritavancin included polysorbate-80 (final test concentration of 0.002%) as described (CLSI 2012a; Arhin et al., 2008). Tests with daptomycin included CaCl2 at a concentration of 50 mg/L. MICs were read after 24 h incubation.

[2] = tested on: S. aureus strains (14 mecC MRSA, 2 mecA MRSA, ATCC 29213 MSSA); experiment: In vitro time-kill assays at free peak and free trough concentrations; type: cell-based, Staphylococcus aureus; details: for Time to cidality (≧3 log decrease): daptomycin ƒCmax 4 mg/L; for Change in cell density at 24 h relative to starting inoculum: daptomycin ƒCmin 0.5 mg/L
Procedure: Viable cell count was determined by serial dilution plating, including the use of 25 g/L charcoal suspension to limit antibiotic carryover. […] Time-kill assays were repeated at least twice independently; results presented are from a representative experiment.
Doubling dilution concentrations of comparator agents were likewise chosen to approximate their fCmax and fCmin levels in plasma when administered at approved dosages for complicated skin and skin structure infections, using pharmacokinetic data and protein binding values from their respective package inserts (DAP [Cubicin®]; LZD [Zyvox®]; VAN [Vancocin®]; Table 3).

[3] = ATCC 29213 / ATCC 33591 / MRSA / MSSA, ATCC 33591 MRSA (mecA)
[4] = ATCC 29213 / ATCC 43300 / MRSA / MSSA, ATCC 43300 MRSA (mecA)

Which results are given for `CCCCCCCCCC(=O)N[C@@H](Cc1c[nH]c2ccccc12)C(=O)N[C@H](CC(N)=O)C(=O)N[C@@H](CC(=O)O)C(=O)N[C@@H]1C(=O)NCC(=O)N[C@@H](CCCN)C(=O)N[C@@H](CC(=O)O)C(=O)N[C@H](C)C(=O)N[C@@H](CC(=O)O)C(=O)NCC(=O)N[C@H](CO)C(=O)N[C@@H]([C@H](C)CC(=O)O)C(=O)N[C@@H](CC(=O)c2ccccc2N)C(=O)O[C@@H]1C` [Daptomycin, daptomycin]?
MIC ([1]; 57147 MRSA (mecC)): 0.5 µg/mL (≈ 0.309 µM); MIC ([1]; 70611 MRSA (mecC)): 0.5 µg/mL (≈ 0.309 µM); MIC ([1]; 73348 MRSA (mecC)): 0.5 µg/mL (≈ 0.309 µM); MIC ([1]; 73415 MRSA (mecC)): 1 µg/mL (≈ 0.617 µM); MIC ([1]; 73617 MRSA (mecC)): 1 µg/mL (≈ 0.617 µM); MIC ([1]; 73829 MRSA (mecC)): 0.5 µg/mL (≈ 0.309 µM); MIC ([1]; 75814 MRSA (mecC)): 0.5 µg/mL (≈ 0.309 µM); MIC ([1]; 76918 MRSA (mecC)): 0.5 µg/mL (≈ 0.309 µM); MIC ([1]; 77431 MRSA (mecC)): 1 µg/mL (≈ 0.617 µM); MIC ([1]; 77601 MRSA (mecC)): 0.5 µg/mL (≈ 0.309 µM); MIC ([1]; 77950 MRSA (mecC)): 0.5 µg/mL (≈ 0.309 µM); MIC ([1]; 77964 MRSA (mecC)): 0.5 µg/mL (≈ 0.309 µM); MIC ([1]; 78085 MRSA (mecC)): 1 µg/mL (≈ 0.617 µM); MIC ([1]; 78651 MRSA (mecC)): 0.5 µg/mL (≈ 0.309 µM); MIC ([1]; ATCC 29213 (MSSA)): 0.5 µg/mL (≈ 0.309 µM); MIC [1, 3]: 1 µg/mL (≈ 0.617 µM); MIC [1, 4]: 0.5 µg/mL (≈ 0.309 µM); MIC ([1]; all strains tested): 0.5 to 1 µg/mL (≈ 0.309 to 0.617 µM); MIC90 [1]: 1 µg/mL (≈ 0.617 µM); Time to cidality (≧3 log decrease) ([2]; 57147 (mecC)): 1-2 h; Change in cell density at 24 h relative to starting inoculum ([2]; 57147 (mecC)): +2.7 log CFU/mL; Time to cidality (≧3 log decrease) ([2]; 70611 (mecC)): 1-2 h; Change in cell density at 24 h relative to starting inoculum ([2]; 70611 (mecC)): +1.5 log CFU/mL; Change in cell density at 24 h relative to starting inoculum ([2]; 73348 (mecC)): +2.6 log CFU/mL; Time to cidality (≧3 log decrease) ([2]; 73415 (mecC)): 2-4 h; Change in cell density at 24 h relative to starting inoculum ([2]; 73415 (mecC)): +1.5 log CFU/mL; Time to cidality (≧3 log decrease) ([2]; 73617 (mecC)): 1-2 h; Change in cell density at 24 h relative to starting inoculum ([2]; 73617 (mecC)): +3.4 log CFU/mL; Time to cidality (≧3 log decrease) ([2]; 73829 (mecC)): 1-2 h; Change in cell density at 24 h relative to starting inoculum ([2]; 73829 (mecC)): +2.1 log CFU/mL; Time to cidality (≧3 log decrease) ([2]; 75814 (mecC)): 1-2 h; Change in cell density at 24 h relative to starting inoculum ([2]; 75814 (mecC)): +3.6 log CFU/mL; Time to cidality (≧3 log decrease) ([2]; 76918 (mecC)): 1-2 h; Change in cell density at 24 h relative to starting inoculum ([2]; 76918 (mecC)): +1.5 log CFU/mL; Time to cidality (≧3 log decrease) ([2]; 77431 (mecC)): 1-2 h; Change in cell density at 24 h relative to starting inoculum ([2]; 77431 (mecC)): +1.9 log CFU/mL; Change in cell density at 24 h relative to starting inoculum ([2]; 77601 (mecC)): +0.1 log CFU/mL; Time to cidality (≧3 log decrease) ([2]; 77950 (mecC)): 1-2 h; Change in cell density at 24 h relative to starting inoculum ([2]; 77950 (mecC)): +0.9 log CFU/mL; Time to cidality (≧3 log decrease) ([2]; 77964 (mecC)): 1-2 h; Change in cell density at 24 h relative to starting inoculum ([2]; 77964 (mecC)): +1.2 log CFU/mL; Time to cidality (≧3 log decrease) ([2]; 78085 (mecC)): 2-4 h; Change in cell density at 24 h relative to starting inoculum ([2]; 78085 (mecC)): +1.5 log CFU/mL; Change in cell density at 24 h relative to starting inoculum ([2]; 78651 (mecC)): +1.6 log CFU/mL; Time to cidality (≧3 log decrease) ([2]; ATCC 29213 (MSSA)): 2-4 h; Change in cell density at 24 h relative to starting inoculum ([2]; ATCC 29213 (MSSA)): +3.9 log CFU/mL; Change in cell density at 24 h relative to starting inoculum ([2]; ATCC 33591 (mecA)): +3.8 log CFU/mL; Time to cidality (≧3 log decrease) ([2]; ATCC 43300 (mecA)): 1-2 h; Change in cell density at 24 h relative to starting inoculum ([2]; ATCC 43300 (mecA)): +3.6 log CFU/mL; Activity in time-kill assay ([2]; S. aureus strains, fCmin): little to no effect or was bacteriostatic

What does the source list for `CC(=O)NC[C@H]1CN(c2ccc(N3CCOCC3)c(F)c2)C(=O)O1` [Linezolid, linezolid]?
MIC ([1]; 57147 MRSA (mecC)): 2 µg/mL (≈ 5.93 µM); MIC ([1]; 70611 MRSA (mecC)): 2 µg/mL (≈ 5.93 µM); MIC ([1]; 73348 MRSA (mecC)): 2 µg/mL (≈ 5.93 µM); MIC ([1]; 73415 MRSA (mecC)): 2 µg/mL (≈ 5.93 µM); MIC ([1]; 73617 MRSA (mecC)): 2 µg/mL (≈ 5.93 µM); MIC ([1]; 73829 MRSA (mecC)): 2 µg/mL (≈ 5.93 µM); MIC ([1]; 75814 MRSA (mecC)): 2 µg/mL (≈ 5.93 µM); MIC ([1]; 76918 MRSA (mecC)): 2 µg/mL (≈ 5.93 µM); MIC ([1]; 77431 MRSA (mecC)): 2 µg/mL (≈ 5.93 µM); MIC ([1]; 77601 MRSA (mecC)): 2 µg/mL (≈ 5.93 µM); MIC ([1]; 77950 MRSA (mecC)): 2 µg/mL (≈ 5.93 µM); MIC ([1]; 77964 MRSA (mecC)): 2 µg/mL (≈ 5.93 µM); MIC ([1]; 78085 MRSA (mecC)): 2 µg/mL (≈ 5.93 µM); MIC ([1]; 78651 MRSA (mecC)): 2 µg/mL (≈ 5.93 µM); MIC ([1]; ATCC 29213 (MSSA)): 2 µg/mL (≈ 5.93 µM); MIC [1, 3]: 2 µg/mL (≈ 5.93 µM); MIC [1, 4]: 1 µg/mL (≈ 2.96 µM); MIC ([1]; all strains tested): 1 to 2 µg/mL (≈ 2.96 to 5.93 µM); MIC90 [1]: 2 µg/mL (≈ 5.93 µM); Activity in time-kill assay ([2]; all tested strains, both fCmin and fCmax): little to no effect or was bacteriostatic
